Reference: patent publication US11833204B2, “Visible light-activatable nanoparticles for cancer immunotherapy and use thereof” (KOREA INSTITUTE OF SCIENCE AND TECHNOLOGY, priority 2021, dated 2023)

Tests used:
CT26 cells [1] = test: Immunogenic cell death: extracellular HSP70 and HMGB1 (Western blotting); assay type: cell-based; details: CT26, 5 μM, 24 h, +L/−L
Method: (§1) First, CT26 cells were plated in 35 mm cell culture dishes at a density of 1×10^5 cells/dish and doxorubicin (DOX) (5 μM), verteporfin (VPF) (5 μM) or the self-assembled nanoparticles (LT-NPs) (5 μM) were added to each dish. After 24-h culture, one half was exposed by irradiation with visible light using a 671 nm laser at 40 mW for 250 sec (+L) and the other half was not irradiated with visible light for comparison (−L). The immunogenic cell death of the self-assembled nanoparticles (LT-NPs) was evaluated using the cells and the cell culture media.
Before staining the cells with APC-conjugated CRT antibody, culture media were separated from the cells and the extracellular expression levels of HMGB1 and HSP70 were analyzed by Western blotting.
Each cell culture medium was treated with RIPA buffer (Cell Signaling Technology) at 4° C. for 30 min and the protein amount of the lysate was analyzed using a Pierce BCA protein assay kit (Thermo Fisher Scientific) according to the manufacturer's protocol. After SDS-PAGE, proteins were transferred to a PVDF membrane (Bio-Rad), which was then treated with Tris-buffered saline (TBS-T) containing 5% skim milk and 0.1% Tween-20. The membrane was incubated with primary antibodies at 4° C. overnight. HSP70 and HMGB1 antibodies were used as the primary antibodies. The membrane was washed with TBS-T and incubated with a secondary antibody at room temperature for 1 h. The membrane was washed with TBS-T, treated with EZ-Western Lumi Pico or Femto reagent (DoGen), and analyzed using Fusion-Solo software (Vilber) according to the manufacturer's protocol to determine band intensities.

CT26 cells [2] = test: Immunogenic cell death: extracellular ATP release; assay type: cell-based; details: CT26, 5 μM, 24 h, +L/−L
Method: as §1
ATP was analyzed using a commercially available ATP assay kit (Beyotime Biotechnology) according to the manufacturer's protocol.

CT26 cells [3] = test: Immunogenic cell death: calreticulin expression; assay type: cell-based; details: CT26, 5 μM, 24 h, +L/−L
Method: as §1
Cells were stained with APC-conjugated CRT antibody for 12 h and observed with a confocal fluorescence microscope.

[4] = Morphological analysis by transmission electron microscopy in saline; assay type: physicochemical; details: 1 mg in 1 mL physiological saline
Method: The self-assembled nanoparticles (LT-NPs) prepared in Example 1, doxorubicin (DOX), and verteporfin (VPF) were used as samples. 1 mg of each sample was mixed with physiological saline (1 mL). […] The self-assembled nanoparticles (LT-NPs) were mixed with cathepsin B (Cat-B) protease (50 μg/mL). The mixture was allowed to react for 24 h.

CT26 cells [5] = test: Apoptosis and necrosis of CT26 cells (Annexin V/PI flow cytometry); assay type: cell-based; details: CT26, visible light
Method: The degrees of apoptosis and necrosis of cancer cells were quantitatively analyzed to accurately evaluate the anticancer effect of the self-assembled nanoparticles (LT-NPs). First, CT26 cells treated with doxorubicin (DOX), verteporfin (VPF), a mixture of doxorubicin and verteporfin (VPF+DOX) or the self-assembled nanoparticles (LT-NPs) and a laser were prepared as above and treated with 5 μg of Annexin V-FITC and 10 μg of PI solution for 10 min. Then, cells were cultured with a cell fixative for 10 min and further cultured with DAPI for 20 min. The degrees of apoptosis and necrosis were quantitatively analyzed using a flow cytometer (BD FACSVerse, BD bioscience, USA).

morphology in physiological saline (TEM) [4] | Compound | HMGB-1 release (CT26 cells [1]) | HSP70 release (CT26 cells [1]) | ATP release (CT26 cells [2]) | calreticulin expression (CT26 cells [3]) | degree of apoptosis (and necrosis) (CT26 cells [5]) | proportions of early apoptosis, late apoptosis and necrosis (CT26 cells [5])
aggregated | COc1cccc2c1C(=O)c1c(O)c3c(c(O)c1C2=O)C[C@@](O)(C(=O)CO)C[C@@H]3O[C@H]1C[C@H](N)[C@H](O)[C@H](C)O1 [doxorubicin] | lowest | lowest | lowest | lowest | very little apoptosis | 
aggregated | verteporfin | relatively increased | relatively increased | relatively increased | relatively increased | considerable apoptosis and necrosis | increase the proportion of late apoptosis
